Columns and labels:
[1] = test system: A2780 (ovarian cell line); experiment: Cytotoxicity assay (propidium iodide assay), A2780; type: cell-based; conditions: Homo sapiens, A2780 cells, 48 h treatment
Procedure: (§1) The assay was designed as in the reference, Anticancer Drugs, 2002, 13, 1-8, the disclosure of which is incorporated by reference for the teaching of the assay.
(§2) Cells from cell lines A2780 (ovarian cell line) and PC3 (prostate cell line) (both from ATCC) were seeded at a density of 3000 cells/well in a white opaque 96-well plate. Following incubation at 37° C./5% CO2 for a period of 18-24 h, the cells were treated with various concentrations (stock solution was prepared in DMSO and subsequent dilutions were made in media as per ATCC guidelines) of the test compounds for a period of 48 h. At the end of treatment, the culture medium was discarded, the cells were washed with 1×PBS and 200 μl of 7 μg/ml propidium iodide was added to each well. The plates were frozen at −70° C. overnight. For analysis, the plates were warmed to RT, allowed to thaw and were read in PoleStar fluorimeter with the fluorescence setting. The percentage of viable cells in the non-treated set of wells was considered to be 100 and the percentage viability following treatment was calculated accordingly. IC50 values were calculated from graphs plotted using these percentages.

PC3 (prostate cell line) = experiment: Cytotoxicity assay (propidium iodide assay), PC3; type: cell-based; conditions: Homo sapiens, PC-3, PC3 cells, 48 h treatment
Procedure: as §1, §2

Compound | IC50 [1] | IC50 (PC3 (prostate cell line)) | inhibition at 1 µM [1] | inhibition at 1 µM (PC3 (prostate cell line))
COc1ccc(-n2c(=NC#N)n(C)c3cnc4ccc(-c5cnc6ccccc6c5)cc4c32)c(OC)c1 [Example 100, N-(1-(2,4-dimethoxyphenyl)-3-methyl-8-(quinolin-3-yl)-1H-imidazo[4,5-c]quinolin-2(3H)-ylidene)cyanamide] | ≤ 0.5 µM | ≤ 0.5 µM | – | –
CC(=O)N(C(C)=O)c1ncc(-c2ccc3ncc4c(c3c2)n(-c2ccc(C(C)(C)C#N)nc2)c(=NC#N)n4C)cc1C(F)(F)F [Example 132, N-acetyl-N-(5-(2-(cyanoimino)-1-(6-(2-cyanopropan-2-yl)pyridin-3-yl)-3-methyl-2,3-dihydro-1H-imidazo[4,5-c]quinolin-8-yl)-3-(trifluoromethyl)pyridin-2-yl)acetamide] | – | – | < 30% | < 30%
COc1ccc(-n2c(=NC#N)n(C)c3cnc4ccc(-c5cnc(N)c(C(F)(F)F)c5)cc4c32)c(Cl)n1 [Example 4, N-(8-(6-amino-5-(trifluoromethyl)pyridin-3-yl)-1-(2-chloro-6-methoxypyridin-3-yl)-3-methyl-1H-imidazo[4,5-c]quinolin-2(3H)-ylidene)cyanamide] | ≤ 0.5 µM | ≤ 0.5 µM | – | –
COc1ncc(-c2ccc3ncc4c(c3c2)n(-c2ccc(C(C)(C)C#N)nc2)c(=NC#N)n4C)cc1NS(C)(=O)=O [Example 126, N-(5-(2-(cyanoimino)-1-(6-(2-cyanopropan-2-yl)pyridin-3-yl)-3-methyl-2,3-dihydro-1H-imidazo[4,5-c]quinolin-8-yl)-2-methoxypyridin-3-yl)methane sulfonamide] | ≤ 0.5 µM | ≤ 0.5 µM | – | –
COc1ccc(-n2c(=NC#N)n(C)c3cnc4ccc(-c5cnc(N)c(C(F)(F)F)c5)cc4c32)c(C)n1 [Example 9, N-(8-(6-amino-5-(trifluoromethyl)pyridin-3-yl)-1-(6-methoxy-2-methylpyridin-3-yl)-3-methyl-1H-imidazo[4,5-c]quinolin-2(3H)-ylidene)cyanamide] | ≤ 0.5 µM | ≤ 0.5 µM | – | –
COc1ncc(-c2ccc3ncc4c(c3c2)n(-c2ccc(C(C)(C)C#N)cc2)c(=NC#N)n4C)cc1NS(C)(=O)=O [Example 127, N-(5-(2-(cyanoimino)-1-(4-(2-cyanopropan-2-yl)phenyl)-3-methyl-2,3-dihydro-1H-imidazo[4,5-c]quinolin-8-yl)-2-methoxypyridin-3-yl)methanesulfonamide] | – | – | ≥ 70% | 30 to 70%
Cn1c(=NC#N)n(-c2ccc(C(C)(C)C#N)nc2)c2c3cc(-c4ccc(C(F)(F)F)cc4)ccc3ncc21 [Example 68, N-(1-(6-(2-cyanopropan-2-yl)pyridin-3-yl)-3-methyl-8-(4-(trifluoromethyl)phenyl)-1H-imidazo[4,5-c]quinolin-2(3H)-ylidene)cyanamide] | – | – | 30 to 70% | < 30%
CCn1c(=NC#N)n(-c2ccc(C(C)(C)C#N)cc2)c2c3cc(-c4cccnc4)ccc3ncc21 [Example 86, N-(1-(4-(2-cyanopropan-2-yl)phenyl)-3-ethyl-8-(pyridin-3-yl)-1H-imidazo[4,5-c]quinolin-2(3H)-ylidene)cyanamide] | – | – | ≥ 70% | 30 to 70%
COc1ncc(-c2ccc3ncc4c(c3c2)n(-c2ccc(C(C)(C)C#N)cc2)c(=NC#N)n4C)cc1NS(=O)(=O)c1ccccc1 [Example 124, N-(5-(2-(cyanoimino)-1-(4-(2-cyanopropan-2-yl)phenyl)-3-methyl-2,3-dihydro-1H-imidazo[4,5-c]quinolin-8-yl)-2-methoxypyridin-3-yl)benzenesulfonamide] | – | – | ≥ 70% | ≥ 70%
COc1ccc(-n2c(=NC#N)n(C)c3cnc4ccc(-c5ccc(C#N)cc5)cc4c32)cn1 [Example 30, N-(8-(4-cyanophenyl)-1-(6-methoxypyridin-3-yl)-3-methyl-1H-imidazo[4,5-c]quinolin-2(3H)-ylidene)cyanamide] | – | – | < 30% | < 30%
Cn1c(=NC#N)n(-c2ccc(C(C)(C)C#N)nc2)c2c3cc(-c4cc(F)cc(F)c4)ccc3ncc21 [Example 63, N-(1-(6-(2-cyanopropan-2-yl)pyridin-3-yl)-8-(3,5-difluorophenyl)-3-methyl-1H-imidazo[4,5-c]quinolin-2(3H)-ylidene)cyanamide] | – | – | 30 to 70% | < 30%
CC(C)(C#N)c1ccc(-n2c(=NC#N)[nH]c3cnc4ccc(-c5cnc(N)c(C(F)(F)F)c5)cc4c32)cc1 [Example 83, N-(8-(6-amino-5-(trifluoromethyl)pyridin-3-yl)-1-(4-(2-cyanopropan-2-yl)phenyl)-1H-imidazo[4,5-c]quinolin-2(3H)-ylidene)cyanamide] | – | – | ≥ 70% | 30 to 70%
COc1ccc(-n2c(=NC#N)n(C)c3cnc4ccc(-c5cccc(C(F)(F)F)c5)cc4c32)cn1 [Example 41, N-(1-(6-methoxypyridin-3-yl)-3-methyl-8-(3-(trifluoromethyl)phenyl)-1H-imidazo[4,5-c]quinolin-2(3H)-ylidene)cyanamide] | – | – | 30 to 70% | 30 to 70%
COc1ccc(-n2c(=NC#N)n(C)c3cnc4ccc(-c5ccc(N(C)C)nc5)cc4c32)cn1 [Example 2, N-(8-(6-(dimethylamino)pyridin-3-yl)-1-(6-methoxypyridin-3-yl)-3-methyl-1H-imidazo[4,5-c]quinolin-2(3H)-ylidene)cyanamide] | ≤ 0.5 µM | ≤ 0.5 µM | – | –
Cn1c(=NC#N)n(-c2ccc(C(C)(C)C#N)nc2)c2c3cc(-c4ccnc(N5CCOCC5)c4Cl)ccc3ncc21 [Example 121, N-(8-(3-chloro-2-morpholinopyridin-4-yl)-1-(6-(2-cyanopropan-2-yl)pyridin-3-yl)-3-methyl-1H-imidazo[4,5-c]quinolin-2(3H)-ylidene)cyanamide] | – | – | < 30% | < 30%
COc1ccc(-n2c(=NC#N)n(C)c3cnc4ccc(-c5cccc(C)c5)cc4c32)cn1 [Example 29, N-(1-(6-methoxypyridin-3-yl)-3-methyl-8-m-tolyl-1H-imidazo[4,5-c]quinolin-2(3H)-ylidene)cyanamide] | – | – | 30 to 70% | < 30%
Cn1c(=NC#N)n(-c2ccc(C(C)(C)C#N)nc2)c2c3cc(-c4ccc5c(c4)OCO5)ccc3ncc21 [Example 54, N-(8-(benzo[d][1,3]dioxol-5-yl)-1-(6-(2-cyanopropan-2-yl)pyridin-3-yl)-3-methyl-1H-imidazo[4,5-c]quinolin-2(3H)-ylidene)cyanamide] | – | – | 30 to 70% | < 30%
Cn1c(=NC#N)n(-c2ccc(C(C)(C)C#N)nc2)c2c3cc(-c4cccnc4F)ccc3ncc21 [Example 64, N-(1-(6-(2-cyanopropan-2-yl)pyridin-3-yl)-8-(2-fluoropyridin-3-yl)-3-methyl-1H-imidazo[4,5-c]quinolin-2(3H)-ylidene)cyanamide] | – | – | 30 to 70% | < 30%
CCCC(CCC)C(=O)Nc1ncc(-c2ccc3ncc4c(c3c2)n(-c2ccc(C(C)(C)C#N)nc2)c(=NC#N)n4C)cc1C(F)(F)F [Example 136, N-(5-(2-(cyanoimino)-1-(6-(2-cyanopropan-2-yl)pyridin-3-yl)-3-methyl-2,3-dihydro-1H-imidazo[4,5-c]quinolin-8-yl)-3-(trifluoromethyl)pyridin-2-yl)-2-propylpentanamide] | – | – | ≥ 70% | 30 to 70%
